Where a name gives a salt, the structure may show the parent alone.
Tests used:
[1] = tested on: ID188 patient-derived PDAC 2D line (pre-FOLFIRINOX); assay: normalised area under dose-response curve (viability relative to DMSO, 7 doses up to 10 µM) (fraction (AUC)); higher = less sensitive (more viability retained); details: 72 h; top dose: 10 µM
In short: (§1)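 A robot plated 1,500–3,000 cells/well of patient-derived 2D PDAC cells, outgrown from organoids, into 96-well plates, followed by overnight incubation at 37°C, 5% CO2. The cells were exposed for 72 h to SelleckChem library compounds at seven 3-fold-diluted concentrations up to 10 µM, and CellTiter-Glo luminescence was read after 10 min. Area under the dose-response curve came from the GRmetrics R package, with viability normalised to control wells.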

[2] = tested on: ID211 patient-derived PDAC 2D line (post-FOLFIRINOX); assay: as above; details: 72 h; top dose: 10 µM
In short: as §1

Row | Compound | normalised area under dose-response curve [1] | normalised area under dose-response curve [2]
1 | Cc1c[nH]c2nc(Nc3ccc(N4CCN(C)CC4)c(F)c3)nc(-c3cccc(CC#N)c3)c12 [SGI-7079] | 0.803 | 0.638
2 | Cn1cc(-c2ccc3nnc(Sc4ccc5ncccc5c4)n3n2)cn1 [SGX-523] | 0.983 | 0.941
3 | CC1(N)CCN(c2cnc(-c3cccc(Cl)c3Cl)c(N)n2)CC1 [SHP099 dihydrochloride] | 0.963 | 0.91
4 | C=CCNc1ncnc2ccc(Br)cc12 [SMER28] | 0.997 | 0.825
5 | C/C(=N\NC(=O)c1cccc(S(=O)(=O)N2CCOCC2)c1)c1cc(Cl)ccc1O [SP2509] | 0.86 | 0.824
6 | O=C(Nc1cc(C(F)(F)F)ccc1N1CCCCC1)c1ccncc1 [SRPIN340] | 0.964 | 0.905
7 | O=C(Nc1ccccc1-c1cn2c(CN3CCNCC3)csc2n1)c1cnc2ccccc2n1 [SRT1720 HCl] | 0.865 | 0.812
8 | CC(C)(C)c1ccc(S(=O)(=O)NCc2ccc(C(=O)Nc3cccnc3)cc2)cc1 [STF-31] | 0.864 | 0.865
9 | Cc1cc2c(C(=O)NC[C@H](C)c3ccccc3)c(O)c(O)cc2c(O)c1-c1c(C)cc2c(C(=O)NC[C@H](C)c3ccccc3)c(O)c(O)cc2c1O [Sabutoclax] | 0.822 | 0.909
10 | CC(C(=O)Nc1cccc(/N=C/c2c(O)ccc3ccccc23)c1)c1ccccc1 (stereo not given) [Salermide] | 0.876 | 0.858
11 | CC(C)=CCC/C(C)=C/CC/C(C)=C/CSc1ccccc1C(=O)O [Salirasib] | 0.949 | 0.881
12 | CC(C)n1nc(-c2ccc3oc(N)nc3c2)c2c(N)ncnc21 [Sapanisertib (INK 128, MLN0128)] | 0.541 | 0.389
13 | CN1CCN(CCOc2cc(OC3CCOCC3)c3c(Nc4c(Cl)ccc5c4OCO5)ncnc3c2)CC1 [Saracatinib (AZD0530)] | 0.858 | 0.609
14 | NC(=O)C1CCCc2c1[nH]c1ccc(Cl)cc21 (stereo not given) [Selisistat (EX 527)] | 0.971 | 0.997
15 | Cc1cc(F)c(C(=O)Nc2cccc(-c3nncn3C(C)C)n2)cc1-n1cnc(C2CC2)c1 [Selonsertib (GS-4997)] | 0.951 | 0.911
16 | Cn1cnc2c(F)c(Nc3ccc(Br)cc3Cl)c(C(=O)NOCCO)cc21 [Selumetinib (AZD6244)] | 0.676 | 0.492
17 | O=C(O)c1ccc2c(c1)nc(Nc1cccc(Cl)c1)c1ccncc12 [Silmitasertib (CX-4945)] | 0.924 | 0.88
18 | O=C([O-])C(Cl)Cl.[Na+] [Sodium dichloroacetate (DCA)] | 0.996 | 0.951
19 | CNC(=O)c1cc(Oc2ccc(NC(=O)Nc3ccc(Cl)c(C(F)(F)F)c3)cc2)ccn1 [Sorafenib Tosylate] | 0.947 | 0.953
20 | CN1CCN(c2nc(C3=C(c4c[nH]c5ccccc45)C(=O)NC3=O)c3ccccc3n2)CC1 [Sotrastaurin] | 0.978 | 0.941

Reference: the supplement of paper PMC8988213
